pIC50: −log10 of the molar value.
System: KRAS-mutant PDC multicell tumor spheroid viability
Assay: Anticancer human tumor 521955-158-R2-J5-PDC patient-derived pancreatic carcinoma cell line growth inhibition [KRAS2]
Conditions: for pIC50: curve of first compound; for viability, T/C: stronger effect = lower value
Outline: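 KRAS-mutant tumor cells were grown as spheroids with HUVEC endothelial cells and human MSCs as stroma. Targeted agents were tested alone and with KRAS pathway inhibitors. Doses started at or near clinical Cmax, or 10 microM, descending half-log.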

[1] = second compound 0.1 µM, first compound 0.0316 µM
[2] = second compound 0.1 µM, first compound 0.1 µM
[3] = second compound 0.1 µM, first compound 0.316 µM
[4] = second compound 0.1 µM, first compound 1 µM
[5] = second compound 0.1 µM, first compound 3.16 µM
[6] = second compound 0.1 µM, first compound 10 µM
[7] = second compound 0.316 µM, first compound 0.0316 µM
[8] = second compound 0.316 µM, first compound 0.1 µM
[9] = second compound 0.316 µM, first compound 0.316 µM
[10] = second compound 0.316 µM, first compound 1 µM
[11] = second compound 0.316 µM, first compound 3.16 µM
[12] = second compound 0.316 µM, first compound 10 µM
[13] = second compound 1 µM, first compound 0.0316 µM
[14] = second compound 1 µM, first compound 0.1 µM
[15] = second compound 1 µM, first compound 0.316 µM
[16] = second compound 1 µM, first compound 1 µM
[17] = second compound 1 µM, first compound 3.16 µM
[18] = second compound 1 µM, first compound 10 µM
[19] = second compound 3.16 µM, first compound 0.0316 µM
[20] = second compound 3.16 µM, first compound 0.1 µM
[21] = second compound 3.16 µM, first compound 0.316 µM
[22] = second compound 3.16 µM, first compound 1 µM
[23] = second compound 3.16 µM, first compound 3.16 µM
[24] = second compound 3.16 µM, first compound 10 µM
[25] = second compound 10 µM, first compound 0.0316 µM
[26] = second compound 10 µM, first compound 0.1 µM
[27] = second compound 10 µM, first compound 0.316 µM
[28] = second compound 10 µM, first compound 1 µM
[29] = second compound 10 µM, first compound 3.16 µM
[30] = second compound 10 µM, first compound 10 µM
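Note: viability read after seven days of drug exposure.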

Which results are given for `COc1cc2nccc(Oc3ccc(NC(=O)C4(C(=O)Nc5ccc(F)cc5)CC4)cc3)c2cc1OC` + CNCc1ccccc1-c1csc(C(C)Nc2nc(C)nc3cc(OC)c(OC)cc23)c1?
pIC50 (second compound 0.1 µM): 5.17; pIC50 (second compound 0.316 µM): 5.21; pIC50 (second compound 1 µM): 5.43; pIC50 (second compound 3.16 µM): > 7.50; pIC50 (second compound 10 µM): > 7.50; viability, T/C [1]: 92.7%; viability, T/C [2]: 94.2%; viability, T/C [3]: 94.5%; viability, T/C [4]: 92.2%; viability, T/C [5]: 70.7%; viability, T/C [6]: 39.4%; viability, T/C [7]: 94.6%; viability, T/C [8]: 101%; viability, T/C [9]: 95.9%; viability, T/C [10]: 115%; viability, T/C [11]: 75.7%; viability, T/C [12]: 31.9%; viability, T/C [13]: 98.8%; viability, T/C [14]: 99.9%; viability, T/C [15]: 114%; viability, T/C [16]: 99.6%; viability, T/C [17]: 57.7%; viability, T/C [18]: 2.02%; viability, T/C [19]: 0.62%; viability, T/C [20]: 0.34%; viability, T/C [21]: 0.41%; viability, T/C [22]: 0.52%; viability, T/C [23]: 0.39%; viability, T/C [24]: 0.4%; viability, T/C [25]: 0.2%; viability, T/C [26]: 0.12%; viability, T/C [27]: 0.63%; viability, T/C [28]: 0.12%; viability, T/C [29]: 0.23%; viability, T/C [30]: 0.19%

What does the source list for `CC1OCC2(CCN(c3cnc(Sc4ccnc(N)c4Cl)c(N)n3)CC2)C1N` (stereo not given) + C=CC(=O)N1CCN(c2nc(=O)n(-c3c(C)ccnc3C(C)C)c3nc(-c4c(O)cccc4F)c(F)cc23)C(C)C1?
pIC50 (second compound 0.1 µM): < 5.00; pIC50 (second compound 0.316 µM): < 5.00; pIC50 (second compound 1 µM): < 5.00; pIC50 (second compound 3.16 µM): < 5.00; pIC50 (second compound 10 µM): < 5.00; viability, T/C [1]: 89.8%; viability, T/C [2]: 96.4%; viability, T/C [3]: 76.3%; viability, T/C [4]: 72%; viability, T/C [5]: 97.5%; viability, T/C [6]: 67.6%; viability, T/C [7]: 89.4%; viability, T/C [8]: 81.5%; viability, T/C [9]: 76.2%; viability, T/C [10]: 75.7%; viability, T/C [11]: 71.6%; viability, T/C [12]: 63.4%; viability, T/C [13]: 101%; viability, T/C [14]: 88.4%; viability, T/C [15]: 91.8%; viability, T/C [16]: 87.4%; viability, T/C [17]: 71.7%; viability, T/C [18]: 66.4%; viability, T/C [19]: 92.1%; viability, T/C [20]: 87.5%; viability, T/C [21]: 72.3%; viability, T/C [22]: 79.1%; viability, T/C [23]: 62%; viability, T/C [24]: 64.7%; viability, T/C [25]: 66.2%; viability, T/C [26]: 59.3%; viability, T/C [27]: 66.2%; viability, T/C [28]: 61.3%; viability, T/C [29]: 54.6%; viability, T/C [30]: 57.8%

`CC(=O)Nc1cccc(-n2c(=O)n(C3CC3)c(=O)c3c(Nc4ccc(I)cc4F)n(C)c(=O)c(C)c32)c1` + CC1OCC2(CCN(c3cnc(Sc4ccnc(N)c4Cl)c(N)n3)CC2)C1N was tested. Which pIC50 (second compound 0.1 µM) did it give?
The pIC50 was 9.84.

What about the pIC50 (second compound 0.316 µM) of the same molecule?
The pIC50 was over 10.00.

And the pIC50 (second compound 1 µM)?
The pIC50 was over 10.00.

What about the pIC50 (second compound 3.16 µM) of the same molecule?
The pIC50 was over 10.00.

And the pIC50 (second compound 10 µM)?
Its pIC50 is over 10.00.

And the viability, T/C (second compound 0.1 µM, first compound 0.0001 µM)?
Its viability, T/C is 59%.

What about the viability, T/C (second compound 0.1 µM, first compound 0.000316 µM) of the same molecule?
Its viability, T/C is 29.4%.

What about the viability, T/C (second compound 0.1 µM, first compound 0.001 µM) of the same molecule?
Its viability, T/C is 29.3%.

What about the viability, T/C (second compound 0.1 µM, first compound 0.00316 µM) of the same molecule?
Its viability, T/C is 25.3%.

What about the viability, T/C (second compound 0.1 µM, first compound 0.01 µM) of the same molecule?
Its viability, T/C is 21.4%.

And the viability, T/C [1]?
The viability, T/C was 13.1%.

What about the viability, T/C (second compound 0.316 µM, first compound 0.0001 µM) of the same molecule?
Its viability, T/C is 44.9%.

What about the viability, T/C (second compound 0.316 µM, first compound 0.000316 µM) of the same molecule?
Its viability, T/C is 32.9%.

What about the viability, T/C (second compound 0.316 µM, first compound 0.001 µM) of the same molecule?
Its viability, T/C is 25.4%.

What about the viability, T/C (second compound 0.316 µM, first compound 0.00316 µM) of the same molecule?
Its viability, T/C is 22.7%.

And the viability, T/C (second compound 0.316 µM, first compound 0.01 µM)?
Its viability, T/C is 18.1%.

And the viability, T/C [7]?
Its viability, T/C is 12.4%.

And the viability, T/C (second compound 1 µM, first compound 0.0001 µM)?
The viability, T/C was 40.3%.

And the viability, T/C (second compound 1 µM, first compound 0.000316 µM)?
The viability, T/C was 35.8%.

And the viability, T/C (second compound 1 µM, first compound 0.001 µM)?
The viability, T/C was 26.9%.

What about the viability, T/C (second compound 1 µM, first compound 0.00316 µM) of the same molecule?
Its viability, T/C is 24.2%.

What about the viability, T/C (second compound 1 µM, first compound 0.01 µM) of the same molecule?
The viability, T/C was 16.8%.

What about the viability, T/C [13] of the same molecule?
Its viability, T/C is 9.6%.

What about the viability, T/C (second compound 3.16 µM, first compound 0.0001 µM) of the same molecule?
Its viability, T/C is 40.9%.

And the viability, T/C (second compound 3.16 µM, first compound 0.000316 µM)?
Its viability, T/C is 32.5%.

What about the viability, T/C (second compound 3.16 µM, first compound 0.001 µM) of the same molecule?
The viability, T/C was 25.2%.

What about the viability, T/C (second compound 3.16 µM, first compound 0.00316 µM) of the same molecule?
The viability, T/C was 21.1%.

What about the viability, T/C (second compound 3.16 µM, first compound 0.01 µM) of the same molecule?
The viability, T/C was 15.3%.

What about the viability, T/C [19] of the same molecule?
Its viability, T/C is 12.7%.

And the viability, T/C (second compound 10 µM, first compound 0.0001 µM)?
The viability, T/C was 39.9%.

And the viability, T/C (second compound 10 µM, first compound 0.000316 µM)?
Its viability, T/C is 34%.

And the viability, T/C (second compound 10 µM, first compound 0.001 µM)?
Its viability, T/C is 23.3%.

And the viability, T/C (second compound 10 µM, first compound 0.00316 µM)?
The viability, T/C was 18.5%.

What about the viability, T/C (second compound 10 µM, first compound 0.01 µM) of the same molecule?
Its viability, T/C is 15.1%.

And the viability, T/C [25]?
The viability, T/C was 11.6%.

From PubChem BioAssay AID1963871 (Molecular Pharmacology Branch, DTP, NCI, 2024)
